{
  "source": "patent US20030158254A1",
  "about": "“Engineering absorption of therapeutic compounds via colonic transporters” (XenoPort, Inc., priority 2002, published 2003)",
  "target": "T1, hSMVT (Homo sapiens, UniProt Q9Y289)",
  "T1 sequence (Q9Y289 1-635)": "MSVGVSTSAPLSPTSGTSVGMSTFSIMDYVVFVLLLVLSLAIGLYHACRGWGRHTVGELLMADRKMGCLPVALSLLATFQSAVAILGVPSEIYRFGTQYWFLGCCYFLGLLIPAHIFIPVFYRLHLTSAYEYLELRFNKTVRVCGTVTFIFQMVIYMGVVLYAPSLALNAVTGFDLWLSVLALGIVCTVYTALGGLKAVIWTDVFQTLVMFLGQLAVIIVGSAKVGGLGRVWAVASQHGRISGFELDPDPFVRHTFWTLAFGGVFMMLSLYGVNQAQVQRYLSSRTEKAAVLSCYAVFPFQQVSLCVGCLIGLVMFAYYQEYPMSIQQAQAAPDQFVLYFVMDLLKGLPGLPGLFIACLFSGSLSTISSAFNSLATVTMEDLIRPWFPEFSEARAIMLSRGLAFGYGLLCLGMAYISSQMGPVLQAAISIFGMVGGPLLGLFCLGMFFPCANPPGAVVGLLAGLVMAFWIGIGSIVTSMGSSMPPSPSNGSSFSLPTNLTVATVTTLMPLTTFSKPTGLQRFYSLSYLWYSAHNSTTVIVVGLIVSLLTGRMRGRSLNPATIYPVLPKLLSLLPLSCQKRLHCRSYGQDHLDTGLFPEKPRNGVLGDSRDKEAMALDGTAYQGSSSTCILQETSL",
  "experiment": "Transport currents in SMVT-expressing Xenopus oocytes, normalized to biotin",
  "format": "cell-based",
  "settings": "response relative to biotin, transporter-expressing oocytes, test compound 0.5 mM",
  "excerpt": "The complete open reading frame of human ATBO+(SLC6A14) and SMVT (SLC5A6) were amplified from human cDNA prepared from liver or intestine mRNA. Gene-specific oligonucleotide primers were designed against Genbank sequences (AF151978 and NM-021095). Amplified PCR products were cloned into a modified version of the mammalian expression vector pcDNA3 (termed pMO) that was engineered to contain the 5′ and 3′ untranslated regions from the Xenopus beta-globin gene. All clones were completely sequenced and tested for function by transient transfection in HEK293 cells.\ncRNA for oocyte expression was prepared by linearization of plasmid cDNA and in vitro transcription using T7 polymerase (Epicentre Ampliscribe kit). Xenopus oocytes were prepared and maintained as previously described (Collins et al., PNAS […]:5456-5460 (1997)) and injected with 10-30 ng RNA. Transport currents were measured 2-6 days later using two-electrode voltage-clamp (Axon Instruments). All experiments were performed using a modified oocyte Ringers solution (90 mM NaCl, 2 mM KCl, 1.8 mM CaCl2, 1 mM MgCl2, and 10 mM Na HEPES, pH 7.4; in Na^+-free solutions 90 mM choline chloride was substituted for NaCl). The membrane potential of oocytes was held at −60 mV and current traces acquired using PowerLab software (AD Instruments). Full 7-concentration dose-responses were performed for each compound. […] Half-maximal concentrations were calculated using non-linear regression curve fitting software (Prism) with the Hill co-efficient fixed to 1. To ensure that currents were specific for the over-expressed transporter, all compounds were tested against uninjected oocytes. Since both ATBO+ and SMVT require Na^+ for transport, we confirmed transport specificity by application of the compounds in a Na^+-free solution.\nIn vitro transport data for selected compounds on hSMVT-expressing cells",
  "data": [
    {"smiles": "CC(C)(N)C(=O)NCC1(CC(=O)O)CCCCC1", "note": "[Compound V, a-aminoisobutyryl gabapentin]", "values": [
      {"measurement": "% Max. (Biotin)", "value": 36, "unit": "%"}
    ]}
  ]
}
